Experimental data taken from patent US20080269237A1, “CARBAMIC ACID COMPOUNDS COMPRISING A PIPERAZINE LINKAGE AS HDAC INHIBITORS” (TOPOTARGET UK LIMITED, priority 2002, published 2008).
Counter-ions that a name gives are not always drawn.

Structure (SMILES)	melting point
COc1ccc2[nH]cc(CCN3CCN(C(=O)CCCCCCC(=O)NO)CC3)c2c1.O=C(O)C(=O)O	122 to 125 °C
O=C(CCCCCCC(=O)N1CCN(c2ccccc2)CC1)NO [PX117402, 8-Oxo-8-(4-phenyl-piperazin-1-yl)-octanoic acid hydroxyamide]	134 to 136 °C
O=C(/C=C/c1cccc(S(=O)(=O)N2CCN(C/C=C/c3ccccc3)CC2)c1)NO [PX118870, (E)-N-Hydroxy-3-[3-({4-[(E)-3-phenyl-2-propenyl]-1-piperazinyl}sulfonyl)phenyl]-2-propenamide]	178 °C
O=C(/C=C/c1cccc(S(=O)(=O)N2CCN(Cc3ccc4c(c3)OCO4)CC2)c1)NO [PX118873, (E)-3-(3-{[4-(1,3-Benzodioxol-5-ylmethyl)-1-piperazinyl]sulfonyl}-phenyl)-N-hydroxy-2-propenamide]	172 °C
O=C(/C=C/c1cccc(S(=O)(=O)N2CCN(Cc3ccccc3)CC2)c1)NO [PX118874, (E)-3-{3-[(4-Benzyl-1-piperazinyl)sulfonyl]phenyl}-N-hydroxy-2-propenamide]	185 °C
O=C(/C=C/c1cccc(S(=O)(=O)N2CCN(c3ccccc3F)CC2)c1)NO [PX118877, (E)-3-(3-{[4-(2-Fluorophenyl)-1-piperazinyl]sulfonyl}phenyl)-N-hydroxy-2-propenamide]	176 °C
COc1cccc(N2CCN(S(=O)(=O)c3ccc(/C=C/C(=O)NO)cc3)CC2)c1 [PX118892, (E)-N-Hydroxy-3-(4-{[4-(3-methoxyphenyl)-1-piperazinyl]sulfonyl}phenyl)-2-propenamide]	199 to 200 °C
O=C(/C=C/c1cccc(S(=O)(=O)N2CCN(c3ncccn3)CC2)c1)NO [PX118894, (E)-N-Hydroxy-3-(3{-[4-(2-pyrimidinyl)-1-piperazinyl]sulfonyl}-phenyl)-2-propenamide]	200 °C
Cc1cccc(N2CCN(C(=O)CCCCCCC(=O)NO)CC2C)c1 (stereo not shown) [PX118899, 8-(3-Methyl-4-m-tolyl-piperazin-1-yl)-8-oxo octanoic acid hydroxyamide]	75 to 76 °C
O=C(/C=C/c1cccc(S(=O)(=O)N2CCN(CC(c3ccccc3)c3ccccc3)CC2)c1)NO [PX118913, (E)-3-(3-{[4-(2,2-Diphenylethyl)-1-piperazinyl]sulfonyl}phenyl)-N-hydroxy-2-propenamide]	117 °C (dec.)
O=C(/C=C/c1cccc(S(=O)(=O)N2CCN(CCc3ccc4ccccc4c3)CC2)c1)NO [PX118914, (E)-N-Hydroxy-3-[3-({4-[2-(2naphthyl)ethyl]-1-piperazinyl}sulfonyl)phenyl]-2-propenamide]	184 °C
CN(C)c1ccc(CCN2CCN(C(=O)CCCCCCC(=O)NO)CC2)cc1 [PX118928, 8-{4-[4-(Dimethylamino)phenethyl]-1-piperazinyl}-N-hydroxy-8-oxooctanamide]	103 to 105 °C
O=C(CCCCCCC(=O)N1CCN(C(=O)COc2ccc3ccccc3c2)CC1)NO [PX118929, N-Hydroxy-8-{4-[2-(2-naphthyloxy)acetyl]-1-piperazinyl}-8-oxooctanamide]	139 to 140.5 °C
C=C(Cl)c1ccc(N2CCN(S(=O)(=O)c3cccc(/C=C/C(=O)NO)c3)CC2)cc1 [PX118933, (E)-3-[3-({4-[4-(1-Chlorovinyl)phenyl]-1-piperazinyl}sulfonyl)phenyl]-N-hydroxy-2-propenamide]	203 °C (dec.)
O=C(/C=C/c1cccc(S(=O)(=O)N2CCN(CCOc3cccc4ccccc34)CC2)c1)NO [PX118934, (E)-N-Hydroxy-3-[3-({4-[2-(1-naphthyloxy)ethyl]-1-piperazinyl}-sulfonyl)phenyl]-2-propenamide]	178 °C
O=C(/C=C/c1ccc(S(=O)(=O)N2CCN(c3cccc(C(F)(F)F)c3)CC2)cc1)NO [PX118937, (E)-N-Hydroxy-3-[4-({4-[3-(trifluoromethyl)phenyl]-1-piperazinyl}-sulfonyl)phenyl]-2-propenamide]	178 to 179 °C
O=C(/C=C/c1ccc(S(=O)(=O)N2CCN(C(c3ccc(F)cc3)c3ccc(F)cc3)CC2)cc1)NO [PX118965, (E)-3-[4-({4-[Bis(4-fluorophenyl)methyl]-1-piperazinyl}sulfonyl)phenyl]-N-hydroxy-2-propenamide]	125 to 126 °C
O=C(CCCCCCC(=O)N1CCN(C(=O)Cc2csc3ccccc23)CC1)NO [PX118967, 8-{4-[2-(1-Benzothiophen-3-yl)acetyl]-1-piperazinyl}-N-hydroxy-8-oxooctanamide]	140 to 141 °C
O=C(CCCCCC(=O)N1CCN(CCCc2c[nH]c3ccccc23)CC1)NO [PX118970, N-Hydroxy-7-{4-[3-(1H-indol-3-yl)propyl]-1-piperazinyl}-7-oxoheptanamide]	165 to 166 °C
O=C(/C=C/c1cccc(S(=O)(=O)N2CCN(c3ccc(Cl)cc3)CC2)c1)NO [PX118972, (E)-3-(3-{[4-(4-Chlorophenyl)-1-piperazinyl]sulfonyl}phenyl)-N-hydroxy-2-propenamide]	215 °C
O=C(CCCCCC(=O)N1CCN(c2ccc(F)cc2)CC1)NO [PX118990, 7-[4-(4-Fluorophenyl)-1-piperazinyl]-N-hydroxy-7-oxoheptanamide]	119 to 120 °C
O=C(CCCCCC(=O)N1CCN(c2ccc(Cl)cc2)CC1)NO [PX118991, 7-[4-(4-Chlorophenyl)-1-piperazinyl]-N-hydroxy-7-oxoheptanamide]	119 to 121 °C
Cc1ccc(N2CCN(C(=O)CCCCCC(=O)NO)CC2)cc1C [PX118994, 7-[4-(3,4-Dimethylphenyl)-1-piperazinyl]-N-hydroxy-7-oxoheptanamide]	119.5 to 120.5 °C

Now from value to compound:

melting point	Structure (SMILES)
118 to 122 °C	O=C(CCCCCC(=O)N1CCN(c2ccccn2)CC1)NO (as salt: oxalate) [PX118845, 7-Oxo-7-(4-pyridin-2-yl-piperazin-1-yl]-heptanoic acid hydroxyamide oxalate]
149 to 150.5 °C	O=C(CCCCCCC(=O)N1CCN(c2cccc(F)c2)CC1)NO [PX118859, 8-[4-(3-Fluorophenyl)-piperazin-1-yl]-8-oxooctanoic acid hydroxyamide]
126 to 128 °C	O=C(CCCCCCC(=O)N1CCN(c2cccc(C(F)(F)F)c2)CC1)NO [PX118860, 8-Oxo-8-[4-(3-trifluoromethylphenyl)-piperazin-1-yl]-octanoic acid hydroxyamide]
196 °C	COc1cccc(N2CCN(S(=O)(=O)c3cccc(/C=C/C(=O)NO)c3)CC2)c1 [PX118872, (E)-N-hydroxy-3-(3-{[4(3-methoxyphenyl)piperazinyl]sulfonyl}phenyl)-2-propenamide]
173 °C	O=C(/C=C/c1cccc(S(=O)(=O)N2CCN(c3cccc(C(F)(F)F)c3)CC2)c1)NO [PX118878, (E)-N-Hydroxy-3-[3-({4-[3-(trifluoromethyl)phenyl]-1-piperazinyl}sulfonyl)phenyl]-2-propenamide]
196 to 197 °C	O=C(/C=C/c1ccc(S(=O)(=O)N2CCN(c3ccccc3F)CC2)cc1)NO [PX118891, (E)-3-(4-{[4-(2-Fluorophenyl)-1-piperazinyl]sulfonyl}phenyl)-N-hydroxy-2-propenamide]
147 to 147.5 °C	C/C(=N\O)c1ccc(N2CCN(C(=O)CCCCCCC(=O)NO)CC2)cc1 [PX118903, 8-{4-[4-(1-Hydroxyimino-ethyl)-phenyl]-piperazin-1-yl}-8-oxo octanoic acid hydroxyamide]
118 to 120 °C	O=C(CCCCCCC(=O)N1CCN(CCc2ccc3ccccc3c2)CC1)NO [PX118908, 8-[4-(2-Naphthalen-2-yl-ethyl)-piperazin-1-yl]-8-oxo octanoic acid hydroxyamide]
117 to 118 °C	O=C(CCCCCCC(=O)N1CCN(CC(c2ccccc2)c2ccccc2)CC1)NO [PX118909, 8-[4-(2,2-Diphenyl-ethyl)-piperazin-1-yl]-8-oxo octanoic acid hydroxyamide]
199 to 200 °C	O=C(/C=C/c1ccc(S(=O)(=O)N2CCN(c3ccc([N+](=O)[O-])cc3)CC2)cc1)NO [PX118918, (E)-N-Hydroxy-3-(4-{[4-(4-nitrophenyl)-1-piperazinyl]sulfonyl}phenyl)-2-propenamide]
130 °C	O=C(/C=C/c1cccc(S(=O)(=O)N2CCN(CCOc3ccc4ccccc4c3)CC2)c1)NO [PX118935, (E)-N-Hydroxy-3-[3-({4-[2-(2-naphthyloxy)ethyl]-1-piperazinyl}-sulfonyl)phenyl]-2-propenamide]
189 °C	CN(C)c1ccc(CCN2CCN(S(=O)(=O)c3cccc(/C=C/C(=O)NO)c3)CC2)cc1 [PX118951, (E)-3-[3-({4-[4-(Dimethylamino)phenethyl]-1-piperazinyl}sulfonyl)phenyl]-N-hydroxy-2-propenamide]
152.5 to 153.5 °C	O=C(CCCCCC(=O)N1CCN(C(=O)CCc2c[nH]c3ccccc23)CC1)NO [PX118968, N-Hydroxy-7-{4-[3-(1H-indol-3-yl)propanoyl]-1-piperazinyl}-7-oxoheptanamide]
86 to 88 °C	O=C(CCCCCC(=O)N1CCN(C(=O)c2c[nH]c3ccccc23)CC1)NO [PX118969, N-Hydroxy-7-[4-(1H-indol-3-ylcarbonyl)-1-piperazinyl]-7-oxoheptanamide]
193 °C	O=C(/C=C/c1cccc(S(=O)(=O)N2CCN(c3ccc(Cl)c(Cl)c3)CC2)c1)NO [PX118971, (E)-3-(3-{[4-(3,4-Dichlorophenyl)-1-piperazinyl]sulfonyl}phenyl)-N-hydroxy-2-propenamide]
65 to 67 °C	O=C(CCCCCC(=O)N1CCN(Cc2c[nH]c3ccccc23)CC1)NO [PX118978, N-Hydroxy-7-[4-(1H-indol-3-ylmethyl)-1-piperazinyl]-7-oxoheptanamide]
125 to 126 °C	O=C(CCCCCC(=O)N1CCN(c2ccc(Cl)c(Cl)c2)CC1)NO [PX118989, 7-[4-(3,4-Dichlorophenyl)-1-piperazinyl]-N-hydroxy-7-oxoheptanamide]
